Data taken from ChEMBL document CHEMBL2150974 (J Med Chem, 2012).
The source made the active and inactive calls. The calls are words filed in the database; no cut-off is given here.

Tests used:
[1] = biological target: Focal adhesion kinase 1 (Homo sapiens) (UniProt Q05397); experiment: Inhibition of FAK at 10 uM
[2] = biological target: Insulin-like growth factor 1 receptor (Homo sapiens) (UniProt P08069); experiment: Inhibition of IGF1R at 10 uM
[3] = biological target: BDNF/NT-3 growth factors receptor (Homo sapiens) (UniProt Q16620); experiment: Inhibition of TRKB at 10 uM
[4] = biological target: Aurora kinase B (Homo sapiens) (UniProt Q96GD4); experiment: Inhibition of AuroraB at 10 uM
[5] = biological target: Tyrosine-protein kinase receptor UFO (Homo sapiens) (UniProt P30530); experiment: Inhibition of AXL at 10 uM
Chain of Tyrosine-protein kinase receptor UFO (Homo sapiens) (P30530 whole entry): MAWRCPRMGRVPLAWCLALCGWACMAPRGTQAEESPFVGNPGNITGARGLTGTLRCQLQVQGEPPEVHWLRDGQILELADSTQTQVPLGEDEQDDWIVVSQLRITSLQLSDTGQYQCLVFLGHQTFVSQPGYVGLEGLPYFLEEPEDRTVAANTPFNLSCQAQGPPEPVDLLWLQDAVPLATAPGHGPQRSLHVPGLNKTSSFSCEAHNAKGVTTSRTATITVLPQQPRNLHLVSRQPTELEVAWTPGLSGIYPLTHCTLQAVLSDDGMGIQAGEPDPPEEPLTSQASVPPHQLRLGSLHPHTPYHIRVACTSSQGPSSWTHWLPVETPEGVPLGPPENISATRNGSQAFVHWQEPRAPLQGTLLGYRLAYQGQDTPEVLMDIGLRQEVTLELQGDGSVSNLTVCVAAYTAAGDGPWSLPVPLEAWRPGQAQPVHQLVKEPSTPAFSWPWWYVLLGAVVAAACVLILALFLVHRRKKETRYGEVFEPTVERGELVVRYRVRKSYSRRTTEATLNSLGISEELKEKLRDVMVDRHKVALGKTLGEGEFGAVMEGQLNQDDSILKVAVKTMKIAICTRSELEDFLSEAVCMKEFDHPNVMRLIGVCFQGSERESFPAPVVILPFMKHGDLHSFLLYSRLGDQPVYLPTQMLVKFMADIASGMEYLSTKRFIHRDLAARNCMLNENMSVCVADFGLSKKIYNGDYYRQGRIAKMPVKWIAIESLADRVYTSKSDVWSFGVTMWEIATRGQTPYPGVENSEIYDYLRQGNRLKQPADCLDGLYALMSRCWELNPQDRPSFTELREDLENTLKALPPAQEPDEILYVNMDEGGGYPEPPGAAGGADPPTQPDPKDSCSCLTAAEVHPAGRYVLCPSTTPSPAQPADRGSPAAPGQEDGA

[6] = biological target: Vascular endothelial growth factor receptor 2 (Homo sapiens) (UniProt P35968); experiment: Inhibition of VEGFR2 at 10 uM
Chain of Vascular endothelial growth factor receptor 2 (Homo sapiens) (P35968 whole entry): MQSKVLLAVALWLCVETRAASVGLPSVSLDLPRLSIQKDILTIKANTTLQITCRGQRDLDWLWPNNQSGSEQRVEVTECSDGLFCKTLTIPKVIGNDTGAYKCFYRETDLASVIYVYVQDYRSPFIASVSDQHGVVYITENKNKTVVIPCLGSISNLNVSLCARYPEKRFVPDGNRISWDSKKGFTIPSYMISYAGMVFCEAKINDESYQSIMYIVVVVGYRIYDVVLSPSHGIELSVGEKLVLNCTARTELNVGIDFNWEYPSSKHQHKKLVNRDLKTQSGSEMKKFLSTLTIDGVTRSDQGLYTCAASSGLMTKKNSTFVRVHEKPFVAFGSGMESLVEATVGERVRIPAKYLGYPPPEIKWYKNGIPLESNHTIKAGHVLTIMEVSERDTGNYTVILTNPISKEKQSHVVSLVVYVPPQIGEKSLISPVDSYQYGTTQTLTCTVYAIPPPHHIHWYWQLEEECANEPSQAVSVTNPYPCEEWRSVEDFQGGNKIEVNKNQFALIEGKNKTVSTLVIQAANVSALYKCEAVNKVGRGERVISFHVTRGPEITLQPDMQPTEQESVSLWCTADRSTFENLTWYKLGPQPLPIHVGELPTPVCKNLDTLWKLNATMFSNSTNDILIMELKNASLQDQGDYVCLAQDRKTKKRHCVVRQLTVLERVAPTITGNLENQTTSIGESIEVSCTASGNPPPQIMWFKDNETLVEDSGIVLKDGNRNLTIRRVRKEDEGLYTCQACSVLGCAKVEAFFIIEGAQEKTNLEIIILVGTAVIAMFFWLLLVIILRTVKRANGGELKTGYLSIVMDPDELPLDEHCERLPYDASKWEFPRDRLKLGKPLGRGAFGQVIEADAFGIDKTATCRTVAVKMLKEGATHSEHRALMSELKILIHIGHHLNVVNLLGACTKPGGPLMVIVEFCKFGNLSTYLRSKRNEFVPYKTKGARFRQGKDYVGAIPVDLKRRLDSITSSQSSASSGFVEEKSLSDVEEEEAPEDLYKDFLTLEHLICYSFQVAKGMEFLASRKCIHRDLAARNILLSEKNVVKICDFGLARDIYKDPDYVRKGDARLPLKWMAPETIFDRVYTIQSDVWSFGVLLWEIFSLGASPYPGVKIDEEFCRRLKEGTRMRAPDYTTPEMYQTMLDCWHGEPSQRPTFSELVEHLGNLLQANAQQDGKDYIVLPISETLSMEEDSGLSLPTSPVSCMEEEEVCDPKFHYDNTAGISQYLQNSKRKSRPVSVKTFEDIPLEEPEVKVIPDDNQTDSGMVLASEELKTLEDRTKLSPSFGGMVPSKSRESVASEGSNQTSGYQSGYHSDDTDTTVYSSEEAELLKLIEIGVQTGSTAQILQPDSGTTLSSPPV

[7] = biological target: Hepatocyte growth factor receptor (Homo sapiens) (UniProt P08581); experiment: Inhibition of MET at 10 uM
[8] = biological target: Casein kinase II subunit alpha (Homo sapiens) (UniProt P68400); experiment: Inhibition of CK2alpha1 at 10 uM
Chain of Casein kinase II subunit alpha (Homo sapiens) (P68400 whole entry, looked up): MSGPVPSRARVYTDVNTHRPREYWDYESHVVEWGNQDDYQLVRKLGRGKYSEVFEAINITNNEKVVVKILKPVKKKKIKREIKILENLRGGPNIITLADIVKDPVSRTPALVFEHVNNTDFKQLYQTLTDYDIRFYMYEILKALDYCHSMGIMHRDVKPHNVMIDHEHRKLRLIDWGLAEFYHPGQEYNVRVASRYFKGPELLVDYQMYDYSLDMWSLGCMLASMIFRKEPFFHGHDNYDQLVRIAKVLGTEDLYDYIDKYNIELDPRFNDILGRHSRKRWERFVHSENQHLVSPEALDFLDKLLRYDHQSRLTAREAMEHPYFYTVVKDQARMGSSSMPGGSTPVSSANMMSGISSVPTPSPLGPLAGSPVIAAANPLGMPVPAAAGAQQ

[9] = biological target: T1, NUAK family SNF1-like kinase 1 (Homo sapiens) (UniProt O60285); experiment: Inhibition of ARK5 at 10 uM
T1 sequence (whole entry): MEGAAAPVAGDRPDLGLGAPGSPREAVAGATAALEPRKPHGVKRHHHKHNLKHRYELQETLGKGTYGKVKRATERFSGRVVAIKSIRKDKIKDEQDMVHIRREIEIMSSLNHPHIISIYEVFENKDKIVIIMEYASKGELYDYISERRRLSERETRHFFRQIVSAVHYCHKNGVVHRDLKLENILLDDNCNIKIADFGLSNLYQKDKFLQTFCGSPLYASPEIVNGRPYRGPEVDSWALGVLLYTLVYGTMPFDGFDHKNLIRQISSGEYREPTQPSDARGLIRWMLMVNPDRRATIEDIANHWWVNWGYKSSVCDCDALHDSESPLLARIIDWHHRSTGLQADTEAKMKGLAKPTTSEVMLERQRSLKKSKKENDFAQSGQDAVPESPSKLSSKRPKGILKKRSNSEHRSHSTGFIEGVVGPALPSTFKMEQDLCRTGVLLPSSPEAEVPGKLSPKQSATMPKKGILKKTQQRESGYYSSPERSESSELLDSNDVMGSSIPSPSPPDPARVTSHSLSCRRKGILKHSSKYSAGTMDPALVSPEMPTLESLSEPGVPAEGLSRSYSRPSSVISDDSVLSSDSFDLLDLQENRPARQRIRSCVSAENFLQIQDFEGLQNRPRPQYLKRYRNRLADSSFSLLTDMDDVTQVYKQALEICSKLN

[10] = biological target: Proto-oncogene tyrosine-protein kinase Src (Homo sapiens) (UniProt P12931); experiment: Inhibition of SRC at 10 uM
Chain of Proto-oncogene tyrosine-protein kinase Src (Homo sapiens) (P12931 2-536 limits assumed): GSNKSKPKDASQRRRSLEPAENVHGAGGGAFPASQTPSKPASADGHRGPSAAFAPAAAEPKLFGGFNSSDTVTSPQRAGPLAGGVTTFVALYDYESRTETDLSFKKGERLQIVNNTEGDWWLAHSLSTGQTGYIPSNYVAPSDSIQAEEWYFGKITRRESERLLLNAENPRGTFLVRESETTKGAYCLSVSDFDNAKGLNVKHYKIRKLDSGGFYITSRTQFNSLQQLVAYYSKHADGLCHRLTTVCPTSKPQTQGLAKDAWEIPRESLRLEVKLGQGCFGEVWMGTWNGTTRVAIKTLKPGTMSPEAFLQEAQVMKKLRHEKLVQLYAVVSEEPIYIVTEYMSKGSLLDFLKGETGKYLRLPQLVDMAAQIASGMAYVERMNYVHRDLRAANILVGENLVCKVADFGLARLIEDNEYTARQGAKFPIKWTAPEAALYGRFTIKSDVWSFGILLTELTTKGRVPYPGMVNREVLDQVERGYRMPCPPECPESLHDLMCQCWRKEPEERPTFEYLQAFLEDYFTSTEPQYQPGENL

[11] = biological target: T2, Mitogen-activated protein kinase 14 (Homo sapiens, UniProt Q16539); experiment: Inhibition of p38alpha-dependent TNFalpha production in human whole blood
T2 sequence (Q16539 whole entry): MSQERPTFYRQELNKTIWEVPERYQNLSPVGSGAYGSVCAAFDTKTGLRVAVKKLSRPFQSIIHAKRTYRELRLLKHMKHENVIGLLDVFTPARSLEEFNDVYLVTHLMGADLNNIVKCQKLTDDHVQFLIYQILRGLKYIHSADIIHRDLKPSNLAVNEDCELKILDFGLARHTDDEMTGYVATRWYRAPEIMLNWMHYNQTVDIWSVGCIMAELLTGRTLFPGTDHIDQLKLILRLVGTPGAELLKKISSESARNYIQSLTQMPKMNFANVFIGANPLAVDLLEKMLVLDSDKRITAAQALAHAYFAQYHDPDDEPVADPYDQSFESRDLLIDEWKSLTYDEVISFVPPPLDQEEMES

[12] = biological target: Serine/threonine-protein kinase PLK1 (Homo sapiens) (UniProt P53350); experiment: Inhibition of PLK1 at 10 uM
[13] = biological target: T3, Serine/threonine-protein kinase PLK4 (Homo sapiens) (UniProt O00444); experiment: Inhibition of SAK at 10 uM
T3 sequence (whole entry): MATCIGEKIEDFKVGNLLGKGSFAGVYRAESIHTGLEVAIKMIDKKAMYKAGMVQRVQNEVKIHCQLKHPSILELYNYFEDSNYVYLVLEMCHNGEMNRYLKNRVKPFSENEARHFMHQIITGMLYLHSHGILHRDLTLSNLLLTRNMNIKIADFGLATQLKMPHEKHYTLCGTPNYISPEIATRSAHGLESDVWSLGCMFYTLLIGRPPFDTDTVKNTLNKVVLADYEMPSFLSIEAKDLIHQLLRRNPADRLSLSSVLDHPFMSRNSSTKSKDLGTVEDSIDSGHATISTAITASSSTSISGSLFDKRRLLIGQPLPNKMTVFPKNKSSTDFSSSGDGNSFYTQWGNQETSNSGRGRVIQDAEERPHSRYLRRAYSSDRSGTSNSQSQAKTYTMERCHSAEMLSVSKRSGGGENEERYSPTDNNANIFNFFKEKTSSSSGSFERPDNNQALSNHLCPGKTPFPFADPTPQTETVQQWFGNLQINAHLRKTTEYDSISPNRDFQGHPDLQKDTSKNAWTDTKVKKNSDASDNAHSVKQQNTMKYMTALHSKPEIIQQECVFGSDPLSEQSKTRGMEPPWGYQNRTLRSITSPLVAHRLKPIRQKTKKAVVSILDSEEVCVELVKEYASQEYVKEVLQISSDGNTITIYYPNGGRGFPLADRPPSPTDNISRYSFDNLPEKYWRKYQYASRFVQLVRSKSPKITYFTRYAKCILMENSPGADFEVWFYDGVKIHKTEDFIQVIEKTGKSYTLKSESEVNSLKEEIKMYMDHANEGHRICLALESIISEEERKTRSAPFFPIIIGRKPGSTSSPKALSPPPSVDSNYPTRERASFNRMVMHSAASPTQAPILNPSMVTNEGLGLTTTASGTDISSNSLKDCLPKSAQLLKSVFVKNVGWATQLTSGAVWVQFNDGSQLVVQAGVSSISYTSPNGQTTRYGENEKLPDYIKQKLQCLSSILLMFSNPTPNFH

[14] = biological target: T2, Mitogen-activated protein kinase 14; experiment: Inhibition of p38alpha by immunosorbent based kinase assay
[15] = biological target: Serine/threonine-protein kinase N1 (Homo sapiens) (UniProt Q16512); experiment: Inhibition of PRK1 at 10 uM
[16] = test system: Serine/threonine-protein kinase B-raf (Homo sapiens), P15056 [V600E]; experiment: Inhibition of BRAF V600E mutant at 10 uM
[17] = biological target: RAC-alpha serine/threonine-protein kinase (Homo sapiens) (UniProt P31749); experiment: Inhibition of AKT1 at 10 uM
[18] = biological target: Insulin receptor (Homo sapiens) (UniProt P06213); experiment: Inhibition of INSR at 10 uM

Chain of Insulin-like growth factor 1 receptor (Homo sapiens) (P08069 31-736 limits assumed): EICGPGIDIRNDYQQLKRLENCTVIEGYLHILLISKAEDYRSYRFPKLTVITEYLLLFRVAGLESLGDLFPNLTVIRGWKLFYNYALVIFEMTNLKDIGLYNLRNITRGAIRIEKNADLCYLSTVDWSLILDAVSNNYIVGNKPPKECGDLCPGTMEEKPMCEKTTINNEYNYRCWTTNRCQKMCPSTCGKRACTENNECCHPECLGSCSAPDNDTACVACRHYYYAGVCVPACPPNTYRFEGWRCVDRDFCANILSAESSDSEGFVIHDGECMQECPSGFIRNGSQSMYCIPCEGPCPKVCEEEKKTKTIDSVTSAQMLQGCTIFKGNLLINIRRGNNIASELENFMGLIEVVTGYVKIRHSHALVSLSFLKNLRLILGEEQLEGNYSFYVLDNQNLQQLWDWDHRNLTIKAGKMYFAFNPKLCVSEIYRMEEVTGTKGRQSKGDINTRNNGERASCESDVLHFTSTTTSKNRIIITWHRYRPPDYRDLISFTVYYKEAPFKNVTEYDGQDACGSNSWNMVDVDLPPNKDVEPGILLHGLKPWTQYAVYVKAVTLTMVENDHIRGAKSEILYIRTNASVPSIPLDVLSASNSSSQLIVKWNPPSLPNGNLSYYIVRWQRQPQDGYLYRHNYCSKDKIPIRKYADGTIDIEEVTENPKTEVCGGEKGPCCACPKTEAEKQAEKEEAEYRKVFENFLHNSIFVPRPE
Chain of Insulin-like growth factor 1 receptor (Homo sapiens) (P08069 741-1367 limits assumed): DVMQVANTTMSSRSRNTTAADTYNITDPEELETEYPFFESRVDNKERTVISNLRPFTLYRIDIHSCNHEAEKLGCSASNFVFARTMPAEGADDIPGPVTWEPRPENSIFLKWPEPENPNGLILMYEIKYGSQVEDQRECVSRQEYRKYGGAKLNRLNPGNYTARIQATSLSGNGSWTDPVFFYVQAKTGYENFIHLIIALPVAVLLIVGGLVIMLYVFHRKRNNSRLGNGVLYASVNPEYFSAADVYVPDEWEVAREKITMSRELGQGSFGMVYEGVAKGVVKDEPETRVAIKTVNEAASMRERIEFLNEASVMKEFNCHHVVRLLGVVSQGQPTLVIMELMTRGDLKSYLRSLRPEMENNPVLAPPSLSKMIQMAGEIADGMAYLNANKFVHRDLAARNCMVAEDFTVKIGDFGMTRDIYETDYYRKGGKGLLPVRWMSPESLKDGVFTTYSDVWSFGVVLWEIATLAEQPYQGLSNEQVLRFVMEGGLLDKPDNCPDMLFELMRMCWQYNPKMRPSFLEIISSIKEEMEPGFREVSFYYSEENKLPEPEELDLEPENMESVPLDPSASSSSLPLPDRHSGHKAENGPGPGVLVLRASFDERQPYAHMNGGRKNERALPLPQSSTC

inhibition [1] | inhibition [2] | inhibition [3] | inhibition [4] | inhibition [5] | inhibition [6] | inhibition [7] | inhibition [8] | inhibition [9] | inhibition [10] | IC50 [11] [nM] | inhibition [12] | inhibition [13] | IC50 [14] [nM] | inhibition [15] | inhibition [16] | inhibition [17] | inhibition [18] | SMILES
inactive | inactive | inactive | inactive | inactive | inactive | inactive | inactive | inactive | inactive | 25500 | inactive | inactive | 900 | inactive | inactive | inactive | inactive | COc1ccc2c(c1)C(=O)c1ccc(Nc3ccc(C(F)(F)F)cc3N)cc1CC2
inactive | inactive | inactive | inactive | inactive | inactive | inactive | inactive | inactive | inactive | 530 | inactive | inactive | 60 | inactive | inactive | inactive | inactive | O=C1c2ccc(Nc3ccc(F)cc3F)cc2CCc2ccc(OC3CCOCC3)cc21
inactive | inactive | inactive | inactive | inactive | inactive | inactive | inactive | inactive | inactive | 200000 | inactive | inactive | 30 | inactive | inactive | inactive | inactive | O=C1c2ccc(Nc3ccc(F)cc3F)cc2CCc2c(OCCN3CCOCC3)cccc21
inactive | inactive | inactive | inactive | inactive | inactive | inactive | inactive | inactive | inactive | 33600 | inactive | inactive | 400 | inactive | inactive | inactive | inactive | COc1ccc2c(c1)C(=O)c1ccc(Nc3ccccc3C(F)(F)F)cc1CC2
inactive | inactive | inactive | inactive | inactive | inactive | inactive | inactive | inactive | inactive | 230 | inactive | inactive | 20 | inactive | inactive | inactive | inactive | CC1(C)OC[C@H](COc2ccc3c(c2)C(=O)c2ccc(Nc4ccc(F)cc4F)cc2CC3)O1
inactive | inactive | inactive | inactive | inactive | inactive | inactive | inactive | inactive | inactive | 170000 | inactive | inactive | 20 | inactive | inactive | inactive | inactive | CC1(C)OC[C@H](COc2ccc3c(c2)CCc2cc(Nc4ccc(F)cc4F)ccc2C3=O)O1
inactive | inactive | inactive | inactive | inactive | inactive | inactive | inactive | inactive | inactive | 480 | inactive | inactive | 10 | inactive | inactive | inactive | inactive | O=C1c2ccc(Nc3ccc(F)cc3F)cc2CCc2ccc(OCCO)cc21
inactive | inactive | inactive | inactive | inactive | inactive | inactive | inactive | inactive | inactive | 190 | inactive | inactive | 30 | inactive | inactive | inactive | inactive | CC1(C)OC[C@H](COc2ccc3c(c2)C(=O)c2ccc(Nc4ccccc4N)cc2CC3)O1
inactive | inactive | inactive | inactive | inactive | inactive | inactive | inactive | inactive | inactive | 52100 | inactive | inactive | 80 | inactive | inactive | inactive | inactive | COc1cccc2c1CCc1cc(Nc3ccccc3N)ccc1C2=O
